Results taken from patent US6579898B2, “Compositions having improved bioavailability” (Pfizer Inc., priority 2001, dated 2003).

Tests used:
[1] = Effect of Vitamin E-TPGS on the pharmacokinetics of eletriptan in beagle dogs; assay type: in vivo; details: male, dog, plasma, oral, fasted, 0.2 or 1.0 mg/kg eletriptan with or without 6.67 mg/kg Vitamin E-TGPS
Procedure: This was a crossover study to assess the effects of Vitamin E-TGPS on the rate of absorption of eletriptan. Four male beagle dogs were orally dosed in the fasted state with a 20 ml aqueous formulation comprising
(a) 0.2 mg/kg eletriptan;
(b) 0.2 mg/kg eletriptan coformulated with 6.67 mg/kg of Vitamin E-TGPS;
(c) 1.0 mg/kg eletriptan; and
(d) 1.0 mg/kg eletriptan coformulated with 6.67 mg/kg of Vitamin E-TGPS.
Blood samples (2.5 ml) were collected at 0, 0.17, 0.33, 0.5, 1, 2, 4, 6, 8, 12 and 24 hours after dosing and centrifuged. The resulting plasma samples were deep frozen until analysed for eletriptan by hplc with electrochemical detection.

[2] = molecular target: p-gp (Homo sapiens, UniProt P08183); assay: in vitro; details: Caco-2
Chain of p-gp (P08183 whole entry): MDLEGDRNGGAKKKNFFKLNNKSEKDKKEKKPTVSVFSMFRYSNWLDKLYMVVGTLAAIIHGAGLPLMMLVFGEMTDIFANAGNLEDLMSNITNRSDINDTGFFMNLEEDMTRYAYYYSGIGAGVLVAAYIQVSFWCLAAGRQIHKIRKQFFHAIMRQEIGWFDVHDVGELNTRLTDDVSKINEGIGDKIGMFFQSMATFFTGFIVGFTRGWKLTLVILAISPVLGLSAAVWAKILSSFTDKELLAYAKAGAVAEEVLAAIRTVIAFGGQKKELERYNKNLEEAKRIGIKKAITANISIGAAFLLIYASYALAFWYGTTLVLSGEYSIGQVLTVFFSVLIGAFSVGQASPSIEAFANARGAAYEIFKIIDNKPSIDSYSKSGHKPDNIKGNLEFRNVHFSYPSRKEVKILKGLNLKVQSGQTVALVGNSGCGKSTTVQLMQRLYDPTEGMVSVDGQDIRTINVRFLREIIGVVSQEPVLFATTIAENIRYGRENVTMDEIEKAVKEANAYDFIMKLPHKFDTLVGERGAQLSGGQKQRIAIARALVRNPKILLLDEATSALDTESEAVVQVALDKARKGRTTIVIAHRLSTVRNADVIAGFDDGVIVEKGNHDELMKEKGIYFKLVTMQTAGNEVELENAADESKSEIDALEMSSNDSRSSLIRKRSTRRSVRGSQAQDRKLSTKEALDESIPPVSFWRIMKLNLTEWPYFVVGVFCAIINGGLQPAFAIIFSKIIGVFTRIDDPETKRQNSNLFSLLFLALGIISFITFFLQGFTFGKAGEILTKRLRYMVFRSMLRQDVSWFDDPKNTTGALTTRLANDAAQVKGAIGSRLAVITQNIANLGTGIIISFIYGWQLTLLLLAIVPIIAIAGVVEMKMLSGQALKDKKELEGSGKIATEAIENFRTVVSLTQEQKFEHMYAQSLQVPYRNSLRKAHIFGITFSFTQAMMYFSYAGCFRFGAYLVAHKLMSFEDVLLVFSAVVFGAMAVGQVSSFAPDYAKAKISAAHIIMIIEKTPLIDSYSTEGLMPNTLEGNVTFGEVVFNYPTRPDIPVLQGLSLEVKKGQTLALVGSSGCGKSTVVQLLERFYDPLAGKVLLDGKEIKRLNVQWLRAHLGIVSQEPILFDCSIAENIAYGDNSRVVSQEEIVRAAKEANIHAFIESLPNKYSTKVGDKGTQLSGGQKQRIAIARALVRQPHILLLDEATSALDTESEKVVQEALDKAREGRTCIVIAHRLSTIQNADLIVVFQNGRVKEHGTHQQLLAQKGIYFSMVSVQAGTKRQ

[3] = Eletriptan transport across Caco-2 cell monolayers, effect of concentration; assay type: in vitro ADME, human; details: human, 2 hours, 37° C.
Procedure: (§1) Caco-2 cell monolayers were grown on permeable 24 well filter supports (1 μm poresize) and used at Day 15-28.
(§2) In studies examining the effect of concentration, 1, 10, 25 and 100 μM solutions of eletriptan in HBSS were added to the donor chamber and Hank's balanced salt solution (HBSS) was added to the acceptor chamber. The volume of the apical and basolateral chambers were 0.25 ml and 1 ml respectively.

[4] = tested on: Human Intestinal (Caco-2) Cell Monolayers; assay: as above; assay type: in vitro ADME; details: Caco-2, higher secretory than absorptive flux at low concentrations
Procedure: as §1, §2

[5] = in vivo

| Cmax [1] [ng/mL] | Tmax [1] [h] | Papp A→B at 2 h, 10 μM [2] [×10⁻⁶ cm/s] | Papp B→A at 2 h, 10 μM [2] [×10⁻⁶ cm/s] | Papp A→B at 2 h, 1 μM ([3]; Caco-2, 1 μM eletriptan, read-out: Absorptive A -> B Papp) [×10⁻⁶ cm/s] | Papp B→A at 2 h, 1 μM ([3]; Caco-2, 1 μM eletriptan, read-out: Secretory B -> A Papp) [×10⁻⁶ cm/s] | Papp A→B at 2 h, 10 μM ([3]; Caco-2, 10 μM eletriptan, read-out: Absorptive A -> B Papp) [×10⁻⁶ cm/s] | Papp B→A at 2 h, 10 μM ([3]; Caco-2, 10 μM eletriptan, read-out: Secretory B -> A Papp) [×10⁻⁶ cm/s] | Papp A→B at 2 h, 25 μM ([3]; Caco-2, 25 μM eletriptan, read-out: Absorptive A -> B Papp) [×10⁻⁶ cm/s] | Papp B→A at 2 h, 25 μM ([3]; Caco-2, 25 μM eletriptan, read-out: Secretory B -> A Papp) [×10⁻⁶ cm/s] | Papp A→B at 2 h, 100 μM ([3]; Caco-2, 100 μM eletriptan, read-out: Absorptive A -> B Papp) [×10⁻⁶ cm/s] | Papp B→A at 2 h, 100 μM ([3]; Caco-2, 100 μM eletriptan, read-out: Secretory B -> A Papp) [×10⁻⁶ cm/s] | substrate for the p-gp efflux transporter [4] | eletriptan kel with the inhibitor [5] | Structure (SMILES) |
| --- | --- | --- | --- | --- | --- | --- | --- | --- | --- | --- | --- | --- | --- | --- |
| 7 to 15 | 1 to 1.7 | 16 | 32.6 | 17 | 41.8 | 20.2 | 36.1 | 21.1 | 34.1 | 29.9 | 32.8 | substrate | – | CN1CCC[C@@H]1Cc1c[nH]c2ccc(CCS(=O)(=O)c3ccccc3)cc12 [eletriptan] |
| – | – | – | – | – | – | – | – | – | – | – | – | – | significantly reduced | CC[C@H]1OC(=O)[C@H](C)[C@@H](O[C@H]2C[C@@](C)(OC)[C@@H](O)[C@H](C)O2)[C@H](C)[C@@H](O[C@@H]2O[C@H](C)C[C@H](N(C)C)[C@H]2O)[C@](C)(O)C[C@@H](C)C(=O)[C@H](C)[C@@H](O)[C@]1(C)O [erythromycin] |
| – | – | – | – | – | – | – | – | – | – | – | – | – | significantly reduced | CC(=O)N1CCN(c2ccc(OCC3COC(Cn4ccnc4)(c4ccc(Cl)cc4Cl)O3)cc2)CC1 (stereo not drawn) [ketoconazole] |
